# Source: patent publication US20030175216A1, “Oral antimicrobial and anti-odor compositions” (Innoscent LTD., priority 2001, published 2003)
# Key:
# [1] = tested on: odor formation in freshly-taken morning saliva; experiment: Inhibition of in vitro odor formation by higher alcohols (saliva in decarboxylase medium); type: cell-based
# Procedure: A series of test tubes were prepared, each containing 5 ml of decarboxylase medium (0.5% peptone, 0.3% yeast extract, 0.1% dextrose and 0.02% bromocresol purple). […] The tubes were incubated at 37° C. for three days. Following incubation, the odor was determined by a panel of odor judges, using the following semi-quantitative scale 0=no odor 1=very slight odor […] The higher alcohols tested were alkanols of chain length C8, C9, C10, C11, C12, C14, C16 and C18.
# [2] = tested on: bacteria and yeast tested; experiment: Agar plate growth inhibition, summary statements over the test microorganisms; type: cell-based; settings: for antimicrobial activity (summary): C. xerosis
# Procedure: (§1) The higher alcohols were tested for antimicrobial activity against Gram positive bacteria (Streptococcus mutans), Gram negative bacteria (Pseudomonas spp., Escherichia coli, […]) and the yeast Candida albicans. […] Five microliters of the higher alcohol solutions were placed on the surface of a rich (Brain-heart infusion) agar plate immediately after seeding with a mono-specific bacterial or yeast culture. The plates were incubated for 24-48 hours, and, following further microbial proliferation, the diameters of the zones of growth inhibition were measured (results expressed in centimeters). In a further set of experiments, the effect of solvent type on the antimicrobial activity of the C9 alcohol was investigated. […] These solutions were tested for antimicrobial activity towards three microorganisms (M. lysodeikticus, S. mutans and Corynebacterium xerosis) using the same assay as described above. The relationship of the concentration of the C9 alcohol to its antimicrobial activity was also investigated. […] These solutions were tested in the assay described above for their ability to inhibit the growth of the bacteria M. lysodeikticus and S. mutans.
# C. xerosis = experiment: Agar plate zone of growth inhibition; type: cell-based, Corynebacterium xerosis
# Procedure: Five microliters of the higher alcohol solutions were placed on the surface of a rich (Brain-heart infusion) agar plate immediately after seeding with a mono-specific bacterial or yeast culture. The plates were incubated for 24-48 hours, and, following further microbial proliferation, the diameters of the zones of growth inhibition were measured (results expressed in centimeters). In a further set of experiments, the effect of solvent type on the antimicrobial activity of the C9 alcohol was investigated. […] These solutions were tested for antimicrobial activity towards three microorganisms (M. lysodeikticus, S. mutans and Corynebacterium xerosis) using the same assay as described above.
# E. coli = experiment: Agar plate zone of growth inhibition; type: cell-based, Escherichia coli
# Procedure: (§2) The higher alcohols were tested for antimicrobial activity against Gram positive bacteria (Streptococcus mutans), Gram negative bacteria (Pseudomonas spp., Escherichia coli, […]) and the yeast Candida albicans. […] Five microliters of the higher alcohol solutions were placed on the surface of a rich (Brain-heart infusion) agar plate immediately after seeding with a mono-specific bacterial or yeast culture. The plates were incubated for 24-48 hours, and, following further microbial proliferation, the diameters of the zones of growth inhibition were measured (results expressed in centimeters).
# S. mutans = experiment: Agar plate zone of growth inhibition; type: cell-based, Streptococcus mutans
# Procedure: as §1
# Pseudomonas aeruginosa = experiment: Agar plate zone of growth inhibition; type: cell-based
# Procedure: as §2
# E. faecalis = experiment: Agar plate zone of growth inhibition; type: cell-based
# Procedure: as §2
# M. lysodeikticus = experiment: Agar plate zone of growth inhibition; type: cell-based
# Procedure: Five microliters of the higher alcohol solutions were placed on the surface of a rich (Brain-heart infusion) agar plate immediately after seeding with a mono-specific bacterial or yeast culture. The plates were incubated for 24-48 hours, and, following further microbial proliferation, the diameters of the zones of growth inhibition were measured (results expressed in centimeters). In a further set of experiments, the effect of solvent type on the antimicrobial activity of the C9 alcohol was investigated. […] These solutions were tested for antimicrobial activity towards three microorganisms (M. lysodeikticus, S. mutans and Corynebacterium xerosis) using the same assay as described above. The relationship of the concentration of the C9 alcohol to its antimicrobial activity was also investigated. […] These solutions were tested in the assay described above for their ability to inhibit the growth of the bacteria M. lysodeikticus and S. mutans.
# C. albicans = experiment: Agar plate zone of growth inhibition; type: cell-based, Candida albicans
# Procedure: as §2
# [3] = 10 μl of 1% solution, scale 0-5
# [4] = 20 μl of 1% solution, scale 0-5
# [5] = 30 μl of 1% solution, scale 0-5
# [6] = 40 μl of 1% solution, scale 0-5
# [7] = 1% in 70% ethanol, solvent study
# [8] = 5 μl of 0.1% solution in 70% ethanol
# [9] = 5 μl of 1% solution (C8-C12 in 70% ethanol, C14-C18 in 100% ethanol)
# [10] = 0.3% C9 in 70% ethanol, concentration series
# [11] = 0.5% C9 in 70% ethanol, concentration series
# [12] = 1% C9 in 70% ethanol, concentration series
# [13] = 2% C9 in 70% ethanol, concentration series
# [14] = 3% C9 in 70% ethanol, concentration series
# [15] = 4% C9 in 70% ethanol, concentration series
# [16] = 5% C9 in 70% ethanol, concentration series
# [17] = 10% C9 in 70% ethanol, concentration series
compound,measurement,setting,value
"CCCCCCCCCO [C9, 1-nonanol]",effect on in vitro odor formation (summary),[1]; 10-50 μl of 1% solution,inhibition of odor formation
same,Odor Score (Judge 1),[1]; [3],4
same,Odor Score (Judge 2),[1]; [3],4
same,Odor Score (Judge 1),[1]; [4],4
same,Odor Score (Judge 2),[1]; [4],4
same,Odor Score (Judge 1),[1]; [5],0
same,Odor Score (Judge 2),[1]; [5],0
same,Odor Score (Judge 1),[1]; [6],0
same,Odor Score (Judge 2),[1]; [6],0
same,Odor Score (Judge 1),"[1]; 50 μl of 1% solution (C8-C12 in 70% ethanol, C14-C18 in 100% ethanol) in 5 ml medium + 200 μl saliva, 3 days 37° C., scale 0 no odor to 5 extremely foul",0
same,Odor Score (Judge 2),"[1]; 50 μl of 1% solution, scale 0-5",0
same,antimicrobial activity (summary),"[2]; 1% C9 dissolved in water, M. lysodeikticus, S. mutans",almost devoid of activity
same,antimicrobial activity (summary),"[2]; 1% C9 solutions made in the lower alcohols, M. lysodeikticus, S. mutans",highly active
same,share of the maximal antibacterial effect,"[2]; C9 0.1-0.2% in 70% ethanol, M. lysodeikticus, S. mutans",more than 75 % of the maximal effect
same,effect on microbial growth (summary),[2]; Table VI microorganisms,inhibit microbial growth
same,spectrum of activity,[2]; among the higher alcohols tested,widest spectrum of activity
same,C9 alcohol concentration giving the greatest antibacterial activity,"[2]; in 70% ethanol, range 0-10%, M. lysodeikticus, S. mutans",≥ 3%
same,"diameter of zone of growth inhibition, C. xerosis",C. xerosis; 1% C9 in 2-propanol,1.0 centimeters
same,"diameter of zone of growth inhibition, C. xerosis",C. xerosis; 1% C9 in 100% methanol,0.4 centimeters
same,"diameter of zone of growth inhibition, C. xerosis",C. xerosis; [7],0.9 centimeters
same,"diameter of zone of growth inhibition, E. coli",E. coli; [8],1.0 centimeters
same,"diameter of zone of growth inhibition, E. coli",E. coli; [9],1.0 centimeters
same,"diameter of zone of growth inhibition, S. mutans",S. mutans; [10],0.8 centimeters
same,"diameter of zone of growth inhibition, S. mutans",S. mutans; [11],0.9 centimeters
same,"diameter of zone of growth inhibition, S. mutans",S. mutans; 1% C9 in 2-propanol,1.3 centimeters
same,"diameter of zone of growth inhibition, S. mutans",S. mutans; [12],0.7 centimeters
same,"diameter of zone of growth inhibition, S. mutans",S. mutans; 1% C9 in 100% methanol,0.9 centimeters
same,"diameter of zone of growth inhibition, S. mutans",S. mutans; [7],0.8 centimeters
same,"diameter of zone of growth inhibition, S. mutans",S. mutans; [13],0.8 centimeters
same,"diameter of zone of growth inhibition, S. mutans",S. mutans; [14],0.9 centimeters
same,"diameter of zone of growth inhibition, S. mutans",S. mutans; [15],1.0 centimeters
same,"diameter of zone of growth inhibition, S. mutans",S. mutans; [16],0.9 centimeters
same,"diameter of zone of growth inhibition, S. mutans",S. mutans; [8],0.9 centimeters
same,"diameter of zone of growth inhibition, S. mutans",S. mutans; [9],0.9 centimeters
same,"diameter of zone of growth inhibition, S. mutans",S. mutans; [17],1.0 centimeters
same,"diameter of zone of growth inhibition, Pseudomonas aeruginosa",Pseudomonas aeruginosa; 5 μl of 0.05% solution in 70% ethanol,0.7 centimeters
same,"diameter of zone of growth inhibition, Pseudomonas aeruginosa",Pseudomonas aeruginosa; [8],0.7 centimeters
same,"diameter of zone of growth inhibition, Pseudomonas aeruginosa",Pseudomonas aeruginosa; [9],0.6 centimeters
same,"diameter of zone of growth inhibition, E. faecalis",E. faecalis; [8],0.7 centimeters
same,"diameter of zone of growth inhibition, E. faecalis",E. faecalis; [9],0.9 centimeters
same,"diameter of zone of growth inhibition, M. lysodeikticus","M. lysodeikticus; 0.1% C9 in 70% ethanol, concentration series",0.7 centimeters
same,"diameter of zone of growth inhibition, M. lysodeikticus","M. lysodeikticus; 0.2% C9 in 70% ethanol, concentration series",0.9 centimeters
same,"diameter of zone of growth inhibition, M. lysodeikticus",M. lysodeikticus; [10],0.7 centimeters
same,"diameter of zone of growth inhibition, M. lysodeikticus",M. lysodeikticus; [11],0.7 centimeters
same,"diameter of zone of growth inhibition, M. lysodeikticus",M. lysodeikticus; 1% C9 in 2-propanol,1.3 centimeters
same,"diameter of zone of growth inhibition, M. lysodeikticus",M. lysodeikticus; [12],0.7 centimeters
same,"diameter of zone of growth inhibition, M. lysodeikticus",M. lysodeikticus; 1% C9 in 100% methanol,0.9 centimeters
same,"diameter of zone of growth inhibition, M. lysodeikticus",M. lysodeikticus; [7],0.7 centimeters
same,"diameter of zone of growth inhibition, M. lysodeikticus",M. lysodeikticus; [13],0.9 centimeters
same,"diameter of zone of growth inhibition, M. lysodeikticus",M. lysodeikticus; [14],0.9 centimeters
same,"diameter of zone of growth inhibition, M. lysodeikticus",M. lysodeikticus; [15],0.9 centimeters
same,"diameter of zone of growth inhibition, M. lysodeikticus",M. lysodeikticus; [16],0.9 centimeters
same,"diameter of zone of growth inhibition, M. lysodeikticus",M. lysodeikticus; [17],0.9 centimeters
same,"diameter of zone of growth inhibition, C. albicans",C. albicans; [8],0.8 centimeters
same,"diameter of zone of growth inhibition, C. albicans",C. albicans; [9],0.9 centimeters
"CO [methanol, reference compound]","diameter of zone of growth inhibition, C. xerosis","C. xerosis; solvent alone (100%), no C9",0.7 centimeters
"CC(C)O [2-propanol, reference compound]","diameter of zone of growth inhibition, C. xerosis","C. xerosis; solvent alone (100%), no C9",0.8 centimeters
same,"diameter of zone of growth inhibition, S. mutans","S. mutans; solvent alone (100%), no C9",0.9 centimeters
same,"diameter of zone of growth inhibition, M. lysodeikticus","M. lysodeikticus; solvent alone (100%), no C9",1.1 centimeters
"OCC(O)CO [glycerol, reference compound]","diameter of zone of growth inhibition, C. xerosis","C. xerosis; solvent alone (100%), no C9",0.2 centimeters
